Measured values published in ChEMBL document CHEMBL4507292 (2021).

Columns and labels:
[1] = biological target: Serine/threonine-protein kinase 32B (Homo sapiens) (UniProt Q9NY57); conditions: Compound concentration 1000.0 nM
[2] = biological target: Vascular endothelial growth factor receptor 1 (Homo sapiens) (UniProt P17948); conditions: Compound concentration 1000.0 nM
[3] = biological target: GABA-A receptor; anion channel (Rattus norvegicus) (UniProt O09028+P15431+P18506+P18508+P19969+P20236+P23574+P23576+P28471+P28473+P30191+P62813+P63079+P63138+Q91ZM7+Q9ES14); conditions: Compound concentration 10.0 uM
[4] = biological target: Delta-type opioid receptor (Homo sapiens) (UniProt P41143); conditions: Compound concentration 10.0 uM
[5] = biological target: Sodium-dependent serotonin transporter (Homo sapiens, UniProt P31645); conditions: Compound concentration 10.0 uM
[6] = biological target: Activin receptor type-1B (Homo sapiens) (UniProt P36896); conditions: Compound concentration 1000.0 nM
[7] = biological target: Serine/threonine-protein kinase PLK1 (Homo sapiens) (UniProt P53350); conditions: Compound concentration 1000.0 nM
[8] = biological target: Serine/threonine-protein kinase PAK 2 (Homo sapiens) (UniProt Q13177); conditions: Compound concentration 1000.0 nM
[9] = biological target: Mitogen-activated protein kinase kinase kinase kinase 3 (Homo sapiens) (UniProt Q8IVH8); conditions: Compound concentration 1000.0 nM
[10] = biological target: Serine/threonine-protein kinase STK11 (Homo sapiens) (UniProt Q15831); conditions: Compound concentration 1000.0 nM
[11] = biological target: STE20-like serine/threonine-protein kinase (Homo sapiens) (UniProt Q9H2G2); conditions: Compound concentration 1000.0 nM
Chain of STE20-like serine/threonine-protein kinase (Homo sapiens) (Q9H2G2 whole entry, looked up): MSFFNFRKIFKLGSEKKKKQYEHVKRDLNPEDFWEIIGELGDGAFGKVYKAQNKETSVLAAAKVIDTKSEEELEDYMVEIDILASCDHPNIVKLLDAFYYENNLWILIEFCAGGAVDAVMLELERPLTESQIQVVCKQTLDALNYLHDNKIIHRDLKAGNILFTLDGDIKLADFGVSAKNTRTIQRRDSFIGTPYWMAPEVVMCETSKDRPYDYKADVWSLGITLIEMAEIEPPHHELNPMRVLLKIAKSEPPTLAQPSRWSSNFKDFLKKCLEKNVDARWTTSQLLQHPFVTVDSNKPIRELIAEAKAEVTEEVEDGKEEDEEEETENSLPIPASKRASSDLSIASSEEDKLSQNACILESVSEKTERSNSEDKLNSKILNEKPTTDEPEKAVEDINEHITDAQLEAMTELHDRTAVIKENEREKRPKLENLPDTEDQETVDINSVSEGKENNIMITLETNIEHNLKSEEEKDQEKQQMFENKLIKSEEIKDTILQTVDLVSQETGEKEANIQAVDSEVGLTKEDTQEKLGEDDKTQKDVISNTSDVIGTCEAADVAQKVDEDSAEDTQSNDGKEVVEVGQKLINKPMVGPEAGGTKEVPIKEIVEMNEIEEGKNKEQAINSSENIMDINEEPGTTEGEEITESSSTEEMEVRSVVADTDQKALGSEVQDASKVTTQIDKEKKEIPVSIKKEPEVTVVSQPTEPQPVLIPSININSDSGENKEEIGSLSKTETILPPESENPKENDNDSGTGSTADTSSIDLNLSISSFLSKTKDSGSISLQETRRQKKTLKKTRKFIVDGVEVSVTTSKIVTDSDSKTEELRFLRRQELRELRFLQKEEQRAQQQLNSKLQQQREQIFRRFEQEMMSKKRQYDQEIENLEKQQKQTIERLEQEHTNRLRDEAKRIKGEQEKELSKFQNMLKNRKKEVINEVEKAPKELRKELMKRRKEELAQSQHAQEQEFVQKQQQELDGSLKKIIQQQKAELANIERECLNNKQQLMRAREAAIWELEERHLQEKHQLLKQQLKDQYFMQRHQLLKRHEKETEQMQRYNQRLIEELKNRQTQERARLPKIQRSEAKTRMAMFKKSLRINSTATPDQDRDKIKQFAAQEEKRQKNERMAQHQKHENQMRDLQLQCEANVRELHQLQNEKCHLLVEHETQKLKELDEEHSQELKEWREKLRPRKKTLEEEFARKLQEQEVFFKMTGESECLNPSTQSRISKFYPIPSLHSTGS

[12] = biological target: Protein kinase C theta type (Homo sapiens) (UniProt Q04759); conditions: Compound concentration 1000.0 nM
[13] = tested on: Tyrosine-protein kinase ABL1 (Homo sapiens), P00519 [H396P]; conditions: Compound concentration 1000.0 nM
[14] = biological target: Serine/threonine-protein kinase TBK1 (Homo sapiens) (UniProt Q9UHD2); conditions: Compound concentration 1000.0 nM
[15] = biological target: Mitogen-activated protein kinase kinase kinase 20 (Homo sapiens) (UniProt Q9NYL2); conditions: Compound concentration 1000.0 nM
[16] = biological target: Phosphatidylinositol 4-phosphate 5-kinase type-1 gamma (Homo sapiens) (UniProt O60331); conditions: Compound concentration 1000.0 nM
[17] = biological target: Dual serine/threonine and tyrosine protein kinase (Homo sapiens) (UniProt Q6XUX3); conditions: Compound concentration 1000.0 nM
Chain of Dual serine/threonine and tyrosine protein kinase (Homo sapiens) (Q6XUX3 whole entry): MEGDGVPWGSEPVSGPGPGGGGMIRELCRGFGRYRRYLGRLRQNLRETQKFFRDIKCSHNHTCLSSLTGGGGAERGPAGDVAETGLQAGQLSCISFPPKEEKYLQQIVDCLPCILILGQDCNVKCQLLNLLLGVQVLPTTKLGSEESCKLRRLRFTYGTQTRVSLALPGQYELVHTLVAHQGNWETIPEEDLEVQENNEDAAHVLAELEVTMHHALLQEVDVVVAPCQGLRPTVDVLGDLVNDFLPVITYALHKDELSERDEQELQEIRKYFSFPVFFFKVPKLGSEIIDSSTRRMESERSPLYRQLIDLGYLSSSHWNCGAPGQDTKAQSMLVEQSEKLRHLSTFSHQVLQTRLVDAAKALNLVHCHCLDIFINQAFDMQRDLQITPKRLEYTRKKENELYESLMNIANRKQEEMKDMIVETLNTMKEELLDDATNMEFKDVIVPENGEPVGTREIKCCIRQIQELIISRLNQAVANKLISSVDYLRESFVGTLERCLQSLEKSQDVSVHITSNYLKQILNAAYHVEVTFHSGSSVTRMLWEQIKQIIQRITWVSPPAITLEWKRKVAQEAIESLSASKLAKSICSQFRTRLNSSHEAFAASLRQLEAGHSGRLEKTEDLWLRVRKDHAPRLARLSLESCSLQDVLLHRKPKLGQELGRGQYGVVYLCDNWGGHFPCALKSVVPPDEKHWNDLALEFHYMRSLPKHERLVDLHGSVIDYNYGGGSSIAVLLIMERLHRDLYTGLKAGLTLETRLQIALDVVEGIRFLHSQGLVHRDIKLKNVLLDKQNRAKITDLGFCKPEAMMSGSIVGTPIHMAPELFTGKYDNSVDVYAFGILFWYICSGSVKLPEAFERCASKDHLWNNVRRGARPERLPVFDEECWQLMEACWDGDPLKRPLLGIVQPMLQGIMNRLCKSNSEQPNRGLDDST

[18] = biological target: Tyrosine-protein kinase JAK1 (Homo sapiens) (UniProt P23458); conditions: Compound concentration 1000.0 nM
[19] = biological target: Dual specificity tyrosine-phosphorylation-regulated kinase 1A (Homo sapiens) (UniProt Q13627); conditions: Compound concentration 1000.0 nM
[20] = biological target: Alpha-1A adrenergic receptor (Homo sapiens) (UniProt P35348); conditions: Compound concentration 10.0 uM
Chain of Alpha-1A adrenergic receptor (Homo sapiens) (P35348 whole entry): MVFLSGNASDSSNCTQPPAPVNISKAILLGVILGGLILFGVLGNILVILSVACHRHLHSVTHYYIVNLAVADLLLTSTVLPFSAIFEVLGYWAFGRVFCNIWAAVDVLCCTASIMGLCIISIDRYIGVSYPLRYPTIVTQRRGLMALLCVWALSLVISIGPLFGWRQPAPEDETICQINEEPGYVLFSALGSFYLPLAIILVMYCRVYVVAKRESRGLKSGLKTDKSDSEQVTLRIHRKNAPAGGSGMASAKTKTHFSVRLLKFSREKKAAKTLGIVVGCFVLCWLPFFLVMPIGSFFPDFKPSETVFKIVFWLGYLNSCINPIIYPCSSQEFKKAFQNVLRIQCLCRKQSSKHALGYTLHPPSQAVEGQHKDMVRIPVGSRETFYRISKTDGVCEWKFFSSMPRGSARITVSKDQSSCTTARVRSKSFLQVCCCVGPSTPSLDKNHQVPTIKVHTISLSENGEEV

[21] = tested on: Tyrosine-protein kinase ABL1 (Homo sapiens), P00519 [F317I]; conditions: Compound concentration 1000.0 nM
[22] = tested on: Tyrosine-protein kinase ABL1 (Homo sapiens), P00519 [H396P]; conditions: Compound concentration 1000.0 nM; remark: listed apart in the source
[23] = tested on: Epidermal growth factor receptor (Homo sapiens), P00533 [T790M]; conditions: Compound concentration 1000.0 nM
[24] = biological target: Tyrosine-protein kinase TXK (Homo sapiens) (UniProt P42681); conditions: Compound concentration 1000.0 nM
Chain of Tyrosine-protein kinase TXK (Homo sapiens) (P42681 whole entry): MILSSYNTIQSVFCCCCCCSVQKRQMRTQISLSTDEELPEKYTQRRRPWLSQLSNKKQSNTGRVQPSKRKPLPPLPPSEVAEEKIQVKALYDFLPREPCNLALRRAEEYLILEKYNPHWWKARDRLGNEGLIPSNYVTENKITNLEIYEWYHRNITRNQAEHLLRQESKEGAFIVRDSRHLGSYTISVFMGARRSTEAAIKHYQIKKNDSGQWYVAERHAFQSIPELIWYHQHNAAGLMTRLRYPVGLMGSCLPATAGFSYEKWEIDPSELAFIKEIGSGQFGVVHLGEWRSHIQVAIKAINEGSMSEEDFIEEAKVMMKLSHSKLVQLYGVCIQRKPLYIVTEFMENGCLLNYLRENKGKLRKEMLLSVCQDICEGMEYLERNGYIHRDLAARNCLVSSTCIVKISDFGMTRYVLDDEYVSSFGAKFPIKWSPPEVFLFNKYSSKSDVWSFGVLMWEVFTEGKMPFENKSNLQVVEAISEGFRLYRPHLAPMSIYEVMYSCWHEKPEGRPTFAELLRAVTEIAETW

[25] = biological target: 3-phosphoinositide-dependent protein kinase 1 (Homo sapiens) (UniProt O15530); conditions: Compound concentration 1000.0 nM
[26] = tested on: Tyrosine-protein kinase ABL1 (Homo sapiens), P00519 [F317L]; conditions: Compound concentration 1000.0 nM
[27] = biological target: Activin receptor type-2B (Homo sapiens) (UniProt Q13705); conditions: Compound concentration 1000.0 nM
[28] = biological target: Rho-associated protein kinase 1 (Homo sapiens) (UniProt Q13464); conditions: Compound concentration 1000.0 nM
[29] = biological target: Mast/stem cell growth factor receptor Kit (Homo sapiens) (UniProt P10721); conditions: Compound concentration 1000.0 nM
[30] = biological target: Serine/threonine-protein kinase pim-2 (Homo sapiens) (UniProt Q9P1W9); conditions: Compound concentration 1000.0 nM
[31] = biological target: Serine/threonine-protein kinase 25 (Homo sapiens) (UniProt O00506); conditions: Compound concentration 1000.0 nM
[32] = biological target: G protein-coupled receptor kinase 4 (Homo sapiens) (UniProt P32298); conditions: Compound concentration 1000.0 nM
[33] = biological target: Atypical kinase COQ8A, mitochondrial (Homo sapiens) (UniProt Q8NI60); conditions: Compound concentration 1000.0 nM
[34] = tested on: Mast/stem cell growth factor receptor Kit (Homo sapiens), P10721 [A829P]; conditions: Compound concentration 1000.0 nM
[35] = biological target: Serine/threonine-protein kinase Nek9 (Homo sapiens) (UniProt Q8TD19); conditions: Compound concentration 1000.0 nM
[36] = biological target: Cytoplasmic tyrosine-protein kinase BMX (Homo sapiens) (UniProt P51813); conditions: Compound concentration 1000.0 nM
[37] = biological target: Cyclin-dependent kinase 18 (Homo sapiens) (UniProt Q07002); conditions: Compound concentration 1000.0 nM
[38] = biological target: 5-hydroxytryptamine receptor 7 (Homo sapiens) (UniProt P34969); conditions: Compound concentration 10.0 uM
[39] = biological target: Serine/threonine-protein kinase 26 (Homo sapiens) (UniProt Q9P289); conditions: Compound concentration 1000.0 nM
[40] = biological target: Receptor tyrosine-protein kinase erbB-2 (Homo sapiens) (UniProt P04626); conditions: Compound concentration 1000.0 nM
Chain of Receptor tyrosine-protein kinase erbB-2 (Homo sapiens) (P04626 whole entry): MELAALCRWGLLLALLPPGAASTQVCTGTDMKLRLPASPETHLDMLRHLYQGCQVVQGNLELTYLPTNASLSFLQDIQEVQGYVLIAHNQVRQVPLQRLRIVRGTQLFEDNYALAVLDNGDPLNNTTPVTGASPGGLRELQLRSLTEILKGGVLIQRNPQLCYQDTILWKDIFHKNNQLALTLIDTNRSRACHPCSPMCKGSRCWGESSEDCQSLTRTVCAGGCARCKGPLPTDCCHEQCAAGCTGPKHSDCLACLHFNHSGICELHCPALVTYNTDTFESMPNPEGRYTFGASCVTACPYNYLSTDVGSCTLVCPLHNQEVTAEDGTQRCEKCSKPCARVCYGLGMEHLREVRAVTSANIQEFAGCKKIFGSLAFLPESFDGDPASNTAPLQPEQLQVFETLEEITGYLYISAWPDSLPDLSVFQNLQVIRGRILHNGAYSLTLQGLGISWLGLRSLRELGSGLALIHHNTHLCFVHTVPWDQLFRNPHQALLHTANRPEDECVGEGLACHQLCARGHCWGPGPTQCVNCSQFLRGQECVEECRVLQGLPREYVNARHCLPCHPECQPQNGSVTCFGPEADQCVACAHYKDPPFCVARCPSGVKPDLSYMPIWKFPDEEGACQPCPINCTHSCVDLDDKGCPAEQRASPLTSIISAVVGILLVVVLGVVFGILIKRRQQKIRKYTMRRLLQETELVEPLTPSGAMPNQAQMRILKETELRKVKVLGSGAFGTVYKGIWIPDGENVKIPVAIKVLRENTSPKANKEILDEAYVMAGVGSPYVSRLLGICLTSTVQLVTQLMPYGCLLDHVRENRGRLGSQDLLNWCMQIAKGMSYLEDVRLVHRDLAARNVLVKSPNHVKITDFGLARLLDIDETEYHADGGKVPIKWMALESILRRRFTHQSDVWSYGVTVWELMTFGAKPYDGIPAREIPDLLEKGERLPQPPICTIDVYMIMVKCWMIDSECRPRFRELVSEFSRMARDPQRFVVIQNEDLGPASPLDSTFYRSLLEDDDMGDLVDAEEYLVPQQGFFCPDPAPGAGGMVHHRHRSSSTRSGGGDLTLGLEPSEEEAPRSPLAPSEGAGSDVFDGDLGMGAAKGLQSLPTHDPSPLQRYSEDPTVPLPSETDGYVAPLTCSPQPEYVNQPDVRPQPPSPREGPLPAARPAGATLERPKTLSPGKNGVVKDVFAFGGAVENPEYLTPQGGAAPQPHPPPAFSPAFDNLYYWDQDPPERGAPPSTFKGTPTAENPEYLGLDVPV

[41] = biological target: 5'-AMP-activated protein kinase catalytic subunit alpha-1 (Homo sapiens) (UniProt Q13131); conditions: Compound concentration 1000.0 nM
Chain of 5'-AMP-activated protein kinase catalytic subunit alpha-1 (Homo sapiens) (Q13131 whole entry, looked up): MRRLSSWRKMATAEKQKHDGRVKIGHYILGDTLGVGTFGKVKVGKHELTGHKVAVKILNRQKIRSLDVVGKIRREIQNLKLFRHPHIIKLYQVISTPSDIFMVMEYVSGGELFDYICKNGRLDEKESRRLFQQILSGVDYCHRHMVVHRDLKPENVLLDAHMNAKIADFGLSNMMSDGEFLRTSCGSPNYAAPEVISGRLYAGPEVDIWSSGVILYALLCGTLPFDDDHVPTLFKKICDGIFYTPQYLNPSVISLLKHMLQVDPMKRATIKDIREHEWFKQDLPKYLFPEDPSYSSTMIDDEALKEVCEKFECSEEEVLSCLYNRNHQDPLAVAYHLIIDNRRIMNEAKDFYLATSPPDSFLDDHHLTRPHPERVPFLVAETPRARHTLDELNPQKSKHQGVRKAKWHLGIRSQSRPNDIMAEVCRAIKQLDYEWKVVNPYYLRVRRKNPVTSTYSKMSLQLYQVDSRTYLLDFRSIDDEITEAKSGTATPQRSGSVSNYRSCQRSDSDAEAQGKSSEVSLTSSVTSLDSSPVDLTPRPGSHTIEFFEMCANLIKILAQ

[42] = biological target: Mu-type opioid receptor (Homo sapiens) (UniProt P35372); conditions: Compound concentration 10.0 uM
[43] = biological target: 5-hydroxytryptamine receptor 2A (Homo sapiens) (UniProt P28223); conditions: Compound concentration 10.0 uM
[44] = biological target: Mitogen-activated protein kinase kinase kinase 12 (Homo sapiens) (UniProt Q12852); conditions: Compound concentration 1000.0 nM

Cc1c(C(=O)O)cc(-c2ccc(C3CCNCC3)cc2)c2ccc(-c3ccc(C(F)(F)F)cc3)cc12 [PPTN-NC]
inactive: residual activity [1] 100% | residual activity [2] 80% | inhibition [3] 1.21% | inhibition [4] 32% | inhibition [5] -7.91% | residual activity [6] 100% | residual activity [7] 94% | residual activity [8] 100% | residual activity [9] 100% | residual activity [10] 94% | residual activity [11] 100% | residual activity [12] 100% | residual activity [13] 99% | residual activity [14] 73% | residual activity [15] 100% | residual activity [16] 98% | residual activity [17] 100% | residual activity [18] 79% | residual activity [19] 100% | inhibition [20] 25.4% | residual activity [21] 100% | residual activity [22] 72% | residual activity [23] 87% | residual activity [24] 100% | residual activity [25] 100% | residual activity [26] 100% | residual activity [27] 88% | residual activity [28] 100% | residual activity [29] 100% | residual activity [30] 100% | residual activity [31] 100% | residual activity [32] 100% | residual activity [33] 100% | residual activity [34] 98% | residual activity [35] 100% | residual activity [36] 100% | residual activity [37] 100% | inhibition [38] -3.66% | residual activity [39] 100% | residual activity [40] 100% | residual activity [41] 98% | inhibition [42] 12.6% | inhibition [43] 23.4% | residual activity [44] 100%

O=C(O)c1cc(-c2ccc(C3CCNCC3)cc2)c2ccc(-c3ccc(C(F)(F)F)cc3)cc2c1 [PPTN]
inactive: residual activity [1] 100% | residual activity [2] 86% | inhibition [3] -3.98% | inhibition [4] 36.4% | inhibition [5] -2.04% | residual activity [6] 100% | residual activity [7] 88% | residual activity [8] 100% | residual activity [9] 100% | residual activity [10] 100% | residual activity [11] 100% | residual activity [12] 100% | residual activity [13] 86% | residual activity [14] 80% | residual activity [15] 100% | residual activity [16] 100% | residual activity [17] 100% | residual activity [18] 87% | residual activity [19] 100% | inhibition [20] 46.7% | residual activity [21] 100% | residual activity [22] 62% | residual activity [23] 96% | residual activity [24] 100% | residual activity [25] 100% | residual activity [26] 100% | residual activity [27] 100% | residual activity [28] 100% | residual activity [29] 100% | residual activity [30] 100% | residual activity [31] 100% | residual activity [32] 72% | residual activity [33] 100% | residual activity [34] 100% | residual activity [35] 100% | residual activity [36] 100% | residual activity [37] 100% | inhibition [38] 17.8% | residual activity [39] 100% | residual activity [40] 100% | residual activity [41] 100% | inhibition [42] 19.3% | inhibition [43] 29.1% | residual activity [44] 100%
